Results: patent US10351530B2, “Arylcyclohexyl pyrazoles as NRF2 regulators” (GlaxoSmithKline Intellectual Property Development Limited, priority 2015, dated 2019)

Assays:
Keap1/NRF2 = target: T1, Keap1/NRF2 (Homo sapiens, UniProt Q14145); test: NRF2-Keap1 FP Assay (Kelch domain (321-609) of Keap1, TAMRA-labeled NRF2 ETGE peptide); type: binding; conditions: Keap1 (321-609) 20 nM, Tamra labeled peptide 8 nM
T1 construct: Keap1 (321-609) is diluted to 40 nM (2×) in 1× assay buffer
Method in brief: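 Fluorescence polarization competition: Keap1 Kelch (321-609) at 20 nM final and TAMRA-ETGE 16-mer peptide at 8 nM final with 3-fold compound dilutions, 1 h room temperature in Tris pH 8.0 buffer (NaCl, MgCl2, DTT, CHAPS, BSA). mP normalized to protein+peptide and peptide-alone controls; pIC50 by four-parameter fit.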

NRF2/Keap1 = target: T2, NRF2/Keap1 (Homo sapiens, UniProt Q14145); test: NRF2-Keap1 TR-FRET Low Protein Assay (full length NRF2 and full length Keap1); type: binding; conditions: low protein: 1.25 nM Keap1 FlagHis, 2.5 nM biotin-NRF2 added
T2 construct: full length NRF2 protein and full length Keap1 protein (Keap1 exists a dimer) are used
T2 sequence (Q14145 whole entry): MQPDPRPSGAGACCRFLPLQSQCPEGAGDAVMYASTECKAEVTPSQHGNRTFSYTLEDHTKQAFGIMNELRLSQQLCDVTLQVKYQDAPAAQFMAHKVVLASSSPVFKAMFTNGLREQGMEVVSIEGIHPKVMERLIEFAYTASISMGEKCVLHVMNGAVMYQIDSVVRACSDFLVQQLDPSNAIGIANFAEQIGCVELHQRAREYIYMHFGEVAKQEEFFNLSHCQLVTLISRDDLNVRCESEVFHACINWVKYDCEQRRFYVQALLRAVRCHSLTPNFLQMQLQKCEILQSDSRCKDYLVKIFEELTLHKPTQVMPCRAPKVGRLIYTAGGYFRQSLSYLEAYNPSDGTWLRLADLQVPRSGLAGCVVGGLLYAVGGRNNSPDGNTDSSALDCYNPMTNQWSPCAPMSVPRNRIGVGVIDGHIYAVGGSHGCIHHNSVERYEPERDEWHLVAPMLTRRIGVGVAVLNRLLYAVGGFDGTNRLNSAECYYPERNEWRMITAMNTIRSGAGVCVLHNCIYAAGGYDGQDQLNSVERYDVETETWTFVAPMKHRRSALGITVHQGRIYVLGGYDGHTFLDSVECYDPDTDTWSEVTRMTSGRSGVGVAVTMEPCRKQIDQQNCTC
Text: In the NRF2-Keap1 TR-FRET (time-resolved fluorescence resonance energy transfer) low protein assay, full length NRF2 protein and full length Keap1 protein (Keap1 exists a dimer) are used. The assay detects a compound's ability to displace the binding of Keap1 FlagHis with biotinylated Avi-NRF2 protein. Biotin-NRF2 binds to streptavidin-europium (a component of the detection mix) and Keap1 FlagHis is recognized by anti-Flag APC (allophycocyanin) antibody (also a component of the detection mix). If binding occurs between the two proteins, there will be an energy transfer from the Eu+3 (donor) at 615 nm to the APC (acceptor) at 665 nm. A potential NRF2 inhibitor will cause a reduction in the TR-FRET signal by interfering with the binding of Keap1 to NRF2.
Ten nanoliters of 100× compound dose response curves (serial 3-fold dilutions) in DMSO are stamped using an Echo liquid handling system (Labcyte) into 384-well, low volume, black assay plates (Greiner, #784076), with DMSO in columns 6 and 18. An additional 90 nl DMSO is added to each well, to bring the total volume to 100 nl per well. The top concentration of compound is located in columns 1 and 13, with the serial dilutions going across the row. All reagents are diluted in assay buffer (50 mM Tris, pH 8.0, 5 mM MgCl2, 100 mM NaCl, 0.005% BSA, 1 mM DTT, and 2 mM CHAPS. The BSA, DTT, and CHAPS are added to the assay buffer on the day of assay. Using a Multidrop Combi (Thermo Electron Corporation) equipped with a metal tip dispenser, 5 ul of 1.25 nM Keap1 FlagHis protein is added to all wells of the compound plate, with the exception of the wells in column 18. Wells in column 18 receive 5 ul of assay buffer instead. Plates are centrifuged at 500 rpm for 1 minute, covered with a plate lid, and incubated at 37° C. for 2.25 hours. Plates are then removed from the incubator and allowed to cool to RT for 15 minutes. Five microliters of 2.5 nM biotin-NRF2 protein is then added to all wells of the plates and the plates are spun at 500 rpm for 1 minute, followed by incubating at 4° C. for 1.25 hours. The plates are then allowed to warm to RT for 15 minutes, followed by the addition of 10 ul of detection mix (1 nM Streptavidin Eu+ W1024 and 5 ug/ml mouse anti-DYKDDDDK IgG conjugated to SureLight APC antibody; both from Columbia Biosciences) to all wells. Plates are spun at 500 rpm for 1 minute, incubated for 1 hour at RT, and read on an Envision plate reader using a 320 nm excitation filter and 615 nm and 665 nm emission filters. Compound response (% inhibition) and potency (pIC50) are calculated based on the ratio of the two emissions (665 nm/615 nm) and then the transformed data is normalized against controls in the assay (control 1=1% DMSO in the presence of NRF2 and Keap1 protein and control 2=1% DMSO in the presence of only the NRF2 protein). Data analysis is handled using the software package Abase XE (Surrey, United Kingdom). The % inhibition values are calculated from the ratio (transformed) data by the equation: 100−(100*(compound response-average control 2)/(average control 1−average control 2)). For calculation of pIC50s, Abase XE uses a four parameter equation.

[1] = system: NQO1 specific enzyme activity in BEAS-2B cells; test: BEAS-2B NQO1 MTT Assay; type: cell-based; conditions: Homo sapiens, BEAS-2B, 48 h, NQO1 specific activity induction
Method in brief: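 BEAS-2B cells exposed to compound for 48 h at 37 °C, 5% CO2, then lysed. NQO1 activity in crude lysate read kinetically by MTT cocktail absorbance at 570 nm over 30 min. pEC50 from ΔOD/min versus log concentration, 3-parameter fit.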

T1 sequence (Q14145 321-609): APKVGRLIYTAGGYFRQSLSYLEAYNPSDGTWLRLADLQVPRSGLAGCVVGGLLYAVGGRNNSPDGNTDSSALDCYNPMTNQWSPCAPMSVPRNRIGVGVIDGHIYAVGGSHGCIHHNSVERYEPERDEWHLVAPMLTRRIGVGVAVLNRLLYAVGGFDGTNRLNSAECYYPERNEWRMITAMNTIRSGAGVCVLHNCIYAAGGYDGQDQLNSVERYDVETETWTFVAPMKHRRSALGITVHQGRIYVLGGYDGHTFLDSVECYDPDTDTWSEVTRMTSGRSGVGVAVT

IC50 (Keap1/NRF2) | IC50 (NRF2/Keap1) | Structure (SMILES) | EC50 [1]
10 to 100 nM | 10 to 100 nM | Cn1cc([C@@H]2C[C@H]2c2c(C(=O)O)cnn2-c2cccc(N3CCC[C@H](CCC4CCCCC4)C3)c2)nn1 [Example 36c, 1-(3-((S)-3-(2-Cyclohexylethyl)piperidin-1-yl)phenyl)-5-((1R,2R)-2-(1-methyl-1H-1,2,3-triazol-4-yl)cyclopropyl)-1H-pyrazole-4-carboxylic Acid] | 10 to 100 nM
10 to 100 nM | 10 to 100 nM | Cn1cc([C@@H]2C[C@H]2c2c(C(=O)O)cnn2-c2cccc(N3CCC[C@@H](CCC4CCCCC4)C3)c2)nn1 [Example 36d, 1-(3-((R)-3-(2-cyclohexylethyl)piperidin-1-yl)phenyl)-5-((1R,2R)-2-(1-methyl-1H-1,2,3-triazol-4-yl)cyclopropyl)-1H-pyrazole-4-carboxylic Acid] | 1 to 10 nM
100 to 1000 nM | 10 to 100 nM | Cn1cc([C@@H]2C[C@H]2c2c(C(=O)O)cnn2-c2cccc(N3CCC[C@@H](OCC4CCCCC4)C3)c2)nn1 [Example 43, 1-(3-((R)-3-(Cyclohexylmethoxy)piperidin-1-yl)phenyl)-5-((1R,2R)-2-(1-methyl-1H-1,2,3-triazol-4-yl)cyclopropyl)-1H-pyrazole-4-carboxylic Acid] | 100 to 1000 nM
